pIC50: −log10 of the molar value.
Test system: PDC KRAS tumor spheroids with HUVEC/MSC, viability
Assay: Anticancer human tumor 349418-098-R-PDC patient-derived lung adenocarcinoma cell line growth inhibition [KRAS2]
Conditions: for pIC50: curve of first compound; for viability, T/C: stronger effect = lower value; active = viability on the fitted dose curve at most 10% of control; inactive = the rest
Method in brief: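 KRAS-mutant tumor cells were grown as spheroids with HUVEC endothelial cells and human MSCs as stroma. Targeted agents were tested alone and with KRAS pathway inhibitors. Doses started at or near clinical Cmax, or 10 microM, descending half-log.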

[1] = second compound 0.1 µM, first compound 0.01 µM
[2] = second compound 0.1 µM, first compound 0.0316 µM
[3] = second compound 0.316 µM, first compound 0.01 µM
[4] = second compound 0.316 µM, first compound 0.0316 µM
[5] = second compound 1 µM, first compound 0.01 µM
[6] = second compound 1 µM, first compound 0.0316 µM
[7] = second compound 3.16 µM, first compound 0.01 µM
[8] = second compound 3.16 µM, first compound 0.0316 µM
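Note: spheroids exposed to compounds for seven days before readout.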

CC(=O)OC12COC1CC(O)C1(C)C(=O)C(O)C3=C(C)C(OC(=O)C(O)C(NC(=O)OC(C)(C)C)c4ccccc4)CC(O)(C(OC(=O)c4ccccc4)C21)C3(C)C (stereo not given) + COc1cc2nc(C)nc(NC(C)c3cc(N)cc(C(F)(F)F)c3)c2cc1OC1CCOC1
> 8.00: pIC50 (second compound 0.1 µM) | pIC50 (second compound 0.316 µM) | pIC50 (second compound 1 µM) | pIC50 (second compound 3.16 µM) | pIC50 (second compound 10 µM)
inactive: viability, T/C [1] 22% | viability, T/C [2] 25.7% | viability, T/C (second compound 0.1 µM, first compound 0.1 µM) 24% | viability, T/C (second compound 0.1 µM, first compound 0.316 µM) 33.4% | viability, T/C (second compound 0.1 µM, first compound 1 µM) 27.4% | viability, T/C (second compound 0.1 µM, first compound 3.16 µM) 38.3% | viability, T/C [3] 20.7% | viability, T/C [4] 27.1% | viability, T/C (second compound 0.316 µM, first compound 0.1 µM) 25.8% | viability, T/C (second compound 0.316 µM, first compound 0.316 µM) 23.7% | viability, T/C (second compound 0.316 µM, first compound 1 µM) 28.6% | viability, T/C (second compound 0.316 µM, first compound 3.16 µM) 34.5% | viability, T/C [5] 22.8% | viability, T/C [6] 31.1% | viability, T/C (second compound 1 µM, first compound 0.1 µM) 27.4% | viability, T/C (second compound 1 µM, first compound 0.316 µM) 33.7% | viability, T/C (second compound 1 µM, first compound 1 µM) 27.8% | viability, T/C (second compound 1 µM, first compound 3.16 µM) 29.6% | viability, T/C [7] 18.3% | viability, T/C [8] 21.3% | viability, T/C (second compound 3.16 µM, first compound 0.1 µM) 21.7% | viability, T/C (second compound 3.16 µM, first compound 0.316 µM) 26.3% | viability, T/C (second compound 3.16 µM, first compound 1 µM) 28.3% | viability, T/C (second compound 3.16 µM, first compound 3.16 µM) 22.1% | viability, T/C (second compound 10 µM, first compound 0.01 µM) 20.1% | viability, T/C (second compound 10 µM, first compound 0.0316 µM) 23.3% | viability, T/C (second compound 10 µM, first compound 0.1 µM) 25.4% | viability, T/C (second compound 10 µM, first compound 0.316 µM) 20.4% | viability, T/C (second compound 10 µM, first compound 1 µM) 23.2% | viability, T/C (second compound 10 µM, first compound 3.16 µM) 26.2%

CC(=O)Nc1cccc(-n2c(=O)n(C3CC3)c(=O)c3c(Nc4ccc(I)cc4F)n(C)c(=O)c(C)c32)c1 + C=CC(=O)N1CCN(c2nc(OCC3CCCN3C)nc3c2CCN(c2cccc4cccc(C)c24)C3)CC1CC#N
> 10.00: pIC50 (second compound 0.0316 µM) | pIC50 (second compound 0.1 µM) | pIC50 (second compound 0.316 µM) | pIC50 (second compound 1 µM) | pIC50 (second compound 3.16 µM)
inactive: viability, T/C (second compound 0.0316 µM, first compound 0.0001 µM) 41.1% | viability, T/C (second compound 0.0316 µM, first compound 0.000316 µM) 20.2% | viability, T/C (second compound 0.0316 µM, first compound 0.001 µM) 14.8% | viability, T/C (second compound 0.0316 µM, first compound 0.00316 µM) 12.2% | viability, T/C (second compound 0.1 µM, first compound 0.0001 µM) 34.7% | viability, T/C (second compound 0.1 µM, first compound 0.000316 µM) 20.9% | viability, T/C (second compound 0.1 µM, first compound 0.001 µM) 16.1% | viability, T/C (second compound 0.1 µM, first compound 0.00316 µM) 10.9% | viability, T/C (second compound 0.316 µM, first compound 0.0001 µM) 35.8% | viability, T/C (second compound 0.316 µM, first compound 0.000316 µM) 21.8% | viability, T/C (second compound 0.316 µM, first compound 0.001 µM) 16.8% | viability, T/C (second compound 0.316 µM, first compound 0.00316 µM) 12.6% | viability, T/C (second compound 1 µM, first compound 0.0001 µM) 30.4% | viability, T/C (second compound 1 µM, first compound 0.000316 µM) 23.3% | viability, T/C (second compound 1 µM, first compound 0.001 µM) 13.3%
active: viability, T/C (second compound 0.0316 µM, first compound 0.01 µM) 8.59% | viability, T/C (second compound 0.0316 µM, first compound 0.0316 µM) 6.57% | viability, T/C [1] 9.4% | viability, T/C [2] 6.86% | viability, T/C [3] 8.68% | viability, T/C [4] 6.94% | viability, T/C (second compound 1 µM, first compound 0.00316 µM) 9.39% | viability, T/C [5] 7.58% | viability, T/C [6] 6.58% | viability, T/C (second compound 3.16 µM, first compound 0.0001 µM) 0.51% | viability, T/C (second compound 3.16 µM, first compound 0.000316 µM) 0.21% | viability, T/C (second compound 3.16 µM, first compound 0.001 µM) 0.19% | viability, T/C (second compound 3.16 µM, first compound 0.00316 µM) 0.46% | viability, T/C [7] 0.21% | viability, T/C [8] 0.34%

Source: PubChem BioAssay AID1963866 (Molecular Pharmacology Branch, DTP, NCI, 2024)
